Data set [1] relates to NCI-H292: human mucoepidermoid lung carcinoma cells. In words: MTT assay on NCI-H292. The format is cell-based. The settings on record: NCI-H292, 96 h, growth inhibition, 96 h incubation. As to the method: (§1) The analysis of the cytotoxic effects of the ADCs was carried out with various cell lines:
(§2) The cells were cultivated by the standard method as stated by the American Tissue Culture Collection (ATCC) or the Leibniz-lnstitut DSMZ-Deutsche Sammlung von Mikroorganismen und Zellkulturen GmbH (DSMZ) for the cell lines in question.
(§3) The cells were then incubated in an incubator at 37° C. and 5% carbon dioxide. […] To this end, the MTT reagent was incubated with the cells for 4 h, followed by lysis of the cells overnight by addition of the detergent. […] The measured data were used to calculate the ICo50 of the growth inhibition using the DRC (dose response curve). The proliferation of cells which were not treated with test substance but were otherwise identically treated was defined as the 100% figure.
On the technique in general: Tetrazolium assays rely on reduction of a dye to a coloured formazan, in cell work by metabolically active cells.

For data set [2], the system named is SK-HEP-1: human liver cell cancer line. In words: MTT assay on SK-HEP-1. The format is cell-based. The settings on record: SK-HEP1, 96 h, growth inhibition, 96 h incubation. As to the method:
as §1, §2, §3

The target of data set [3] is T1, motor domain of the human kinesin spindle protein KSP/Eg5 (Homo sapiens, UniProt P52732).
T1 construct: The motor domain of the human kinesin spindle protein KSP/Eg5; purchased tebu-bio/Cytoskeleton Inc 027EG01-XL
T1 sequence (P52732 18-359 limits assumed): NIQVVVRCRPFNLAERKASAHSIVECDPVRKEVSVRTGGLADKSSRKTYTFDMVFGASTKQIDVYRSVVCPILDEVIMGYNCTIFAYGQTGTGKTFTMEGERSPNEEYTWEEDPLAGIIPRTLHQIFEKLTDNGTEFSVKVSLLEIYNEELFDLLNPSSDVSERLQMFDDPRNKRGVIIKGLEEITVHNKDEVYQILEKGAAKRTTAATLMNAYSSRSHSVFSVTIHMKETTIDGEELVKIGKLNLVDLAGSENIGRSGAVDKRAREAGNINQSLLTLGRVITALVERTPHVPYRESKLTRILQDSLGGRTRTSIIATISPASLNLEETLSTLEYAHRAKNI
In words: Inhibition of the kinesin spindle protein KSP/Eg5 (ATPase activity, malachite green). In kind it is biochemical. As to conditions: 10 nM KSP/Eg5, microtubuli, 500 μM ATP, 2 h at RT. As for the experimental part: The motor domain of the human kinesin spindle protein KSP/Eg5 (tebu-bio/Cytoskeleton Inc, No. 027EG01-XL) was incubated in a concentration of 10 nM with microtubuli (bovine or porcine, tebu-bio/Cytoskeleton Inc) stabilized with 50 μg/ml taxol (Sigma No. T7191-5MG) for 5 min at RT in 15 mM PIPES, pH 6.8 (5 mM MgCl2 and 10 mM DTT, Sigma). […] Incubation was at RT for 2 h. ATPase activity was detected by detecting the inorganic phosphate formed using malachite green (Biomol). […] The positive controls used were monastrol (Sigma, M8515-1 mg) and ispinesib (AdooQ Bioscience A10486). The individual data of the dose-activity curve are eight-fold determinations. The IC50 values are means of two independent experiments.

Data set [4] can be described thus: Assay for determination of stability in rat plasma. In kind it is in vitro ADME. As to conditions: 1 μg/ml, 37° C., 24 h. As to the method:
To examine the stability of compounds A and B, 1 ml of rat plasma in a 1.5 ml Eppendorf tube in each case was equilibrated to 37° C. on an Eppendorf shaker. A stock solution (9 acetonitrile/1 DMSO) having a concentration of 100 μg/ml for compound A and compound B was prepared. 10 μl in each case of the stock solution were pipetted into 1 ml of equilibrated rat plasma, so as to give a concentration of 1 μg/ml.
The samples were kept at 450 rpm and 37° C. for 24 h. At each of the sampling times of 0, 0.25 h, 0.5 h, 1 h, 2 h, 4 h, 6 h and 24 h, 50 μl were taken and pipetted into 150 μl of methanol. Internal standard was included in the initial charge of methanol at a concentration of 0.05 μg/ml. After brief vortexing, 300 μl of 10 mM ammonium acetate buffer (pH 6.8) were added and centrifuged at 1881 g for 10 min. The samples were then analysed by means of RP-HPLC analysis and by LC-MS analysis.

Data set [5] is described as follows: Assay for determination of stability in rat liver lysosomes. The format is in vitro ADME. As to conditions: over 24 h, 37° C. As for the experimental part: To determine the lysosomal stability of compounds A and B, lysosomal enzymes were isolated from rat liver cells. Compounds A and B were each added to this lysosomal extract in order to examine stability under lysosomal conditions. The proteolytic enzyme legumain is expressed only in a very small amount, if any, in rat liver lysosomes (Chen, J-M. et al 1997). To monitor the enzymatic activity of the lysosomal enzymes, a cathepsin-specific substrate was added.
First of all, a fresh rat liver was removed, weighed and immediately placed on ice in homogenization medium (0.25 M sucrose, 1 mM EDTA, 10 mM HEPES, pH7). The liver was comminuted and a change of medium was undertaken. The rat livers were homogenized with 4 times the amount of the rat liver weight at 750 rpm in a Potter (B. Braun). The homogenate was centrifuged at 1000 g for 10 min and the supernatant was filtered. In the next step, with the aid of an ultracentrifuge, the “light mitochondrial fraction” (LMF) was centrifuged out of the supernatant at 26 500 g over 20 min. […]
The sucrose was added from a 2.3 M stock solution of the particular percentage. […] To monitor the lysis, the protein content of the lysed lysosomal fraction was monitored with the aid of a BCA assays (Pierce BCA protein assay kit). […] For the RP-HPLC LCMS analysis, the samples were diluted with 300 μl of 10 mM ammonium acetate buffer (pH 6.8) and analysed.

The nature of data set [6]: Stability in rat liver lysosomes (chapter C1c). In kind it is in vitro ADME.

As a reminder, the IC50 is the point on the concentration scale where inhibition reaches its midpoint. High values mean lower potency, low ones higher potency.

`CNC(=O)[C@H](CCN(C(=O)CO)[C@@H](c1cc(-c2cc(F)ccc2F)cn1Cc1ccccc1)C(C)(C)C)NC(=O)[C@H](CC(N)=O)NC(=O)[C@@H](C)NC(=O)[C@H](C)NC(=O)Cc1ccncc1` [Example R3r-LDL, N-(Pyridin-4-ylacetyl)-L-alanyl-D-alanyl-N^1-[(2S)-4-[{(1R)-1-[1-benzyl-4-(2,5-difluorophenyl)-1H-pyrrol-2-yl]-2,2-dimethylpropyl}(glycoloyl)amino]-1-(methylamino)-1-oxobutan-2-yl]-L-aspartamide]: the results for the 50% inhibitory concentration (IC50) in data set [1], in data set [2] and in data set [3] were 190 nM, 283 nM and 264 nM, respectively. The “stability in rat plasma” value in data set [4] is “stable over 24 h”. In data set [5], the “stability in rat liver lysosomal extract” value is “stable”. Besides, the “stability in rat liver lysosomes (in words)” value in data set [6] is on record as “high stability”.

Source of the values: patent US11685714B2, “Prodrugs of cytotoxic active agents having enzymatically cleavable groups” (BAYER PHARMA AKTIENGESELLSCHAFT, priority 2016, dated 2023).
